The source of these data is ChEMBL document CHEMBL1921776, “Synthesis and biological activity of acetyl-protected hydroxybenzyl diethyl phosphates (EHBP) as potential chemotherapeutic agents” (Bioorg Med Chem Lett, 2011).

Activity calls are given as the source filed them. No cut-off for these calls is given here.

In assay [1] the test system is HT-29. The assay is described as follows: Induction of apoptosis in human HT-29 cells at 50 uM after 24 hrs using annexin V-FITC and propidium iodide staining by flow cytometry. In kind it is functional.
For assay [2], the system named is HT-29. The assay is described as follows: Cell cycle arrest in human HT-29 cells assessed as increase in G2/M phase after 24 hrs using propidium iodide staining-based flow cytometry. In kind it is functional.
Assay [3] has as its system SCC-25. Nature of the assay: Ratio of p-NO-ASA IC50 to compound IC50 for human SCC25 cells assessed as growth inhibition after 48 hrs by trypan blue assay. Type of assay: functional.
The subject of assay [4] is HCT-15. The assay is described as follows: Ratio of p-NO-ASA IC50 to compound IC50 for human HCT15 cells assessed as growth inhibition after 48 hrs by trypan blue assay. Type of assay: functional.
Assay [5] concerns A549. The assay is described as follows: Ratio of p-NO-ASA IC50 to compound IC50 for human A549 cells assessed as growth inhibition after 48 hrs by trypan blue assay. In kind it is functional.
For assay [6], the system named is LNCaP. The assay is described as follows: Ratio of p-NO-ASA IC50 to compound IC50 for human LNCAP cells assessed as growth inhibition after 48 hrs by trypan blue assay. Type of assay: functional.
Assay [7] concerns BXPC-3. The assay is described as follows: Ratio of p-NO-ASA IC50 to compound IC50 for human BxPC3 cells assessed as growth inhibition after 48 hrs by trypan blue assay. In kind it is functional.
Assay [8] has as its system HT-29. The assay is described as follows: Antiproliferative activity against human HT-29 cells assessed as decrease of PCNA expression after 24 hrs by ELISA. Type of assay: functional, cell-based.
The test system of assay [9] is HT-29. The assay is described as follows: Cell cycle arrest in human HT-29 cells assessed as reduction in G0/G1 phase after 24 hrs using propidium iodide staining-based flow cytometry. Type of assay: functional.
For assay [10], the system named is HT-29. The assay is described as follows: Cell cycle arrest in human HT-29 cells assessed as accumulation of cells at S phase at 10 uM after 24 hrs using propidium iodide staining-based flow cytometry (reference value: 19.4%). Type of assay: functional.
Assay [11] deals with Jurkat. Nature of the assay: Cytotoxicity against human Jurkat cells assessed as growth inhibition after 24 hrs by MTT assay. Type of assay: functional, cell-based.
For assay [12], the system named is HT-29. Nature of the assay: Induction of apoptosis in human HT-29 cells at 10 uM after 24 hrs using annexin V-FITC and propidium iodide staining by flow cytometry. In kind it is functional.
Assay [13] has as its system BXPC-3. Nature of the assay: Cytotoxicity against human BxPC3 cells assessed as growth inhibition after 24 hrs by MTT assay. The following applies: BXPC-3, 24 h. Type of assay: functional, cell-based.
In assay [14] the test system is HT-29. The assay is described as follows: Cell cycle arrest in human HT-29 cells assessed as accumulation of cells at G2/M phase at 3 uM after 24 hrs using propidium iodide staining-based flow cytometry (reference value: 5.8%). Type of assay: functional.
For assay [15], the system named is MIA PaCa-2. Nature of the assay: Ratio of p-NO-ASA IC50 to compound IC50 for human MIAPaCa2 cells assessed as growth inhibition after 48 hrs by trypan blue assay. In kind it is functional.
The subject of assay [16] is HT-29. The assay is described as follows: Cytotoxicity against human HT-29 cells assessed as growth inhibition after 24 hrs by MTT assay. In kind it is functional, cell-based. The following applies: HT-29, 24 h.
Assay [17] relates to MCF7. Nature of the assay: Cytotoxicity against human MCF7 cells assessed as growth inhibition after 24 hrs by MTT assay. In kind it is functional, cell-based. The following applies: MCF7, 24 h.
Assay [18] concerns HT-29. The assay is described as follows: Cell cycle arrest in human HT-29 cells assessed as accumulation of cells at S phase at 3 uM after 24 hrs using propidium iodide staining-based flow cytometry (reference value: 19.4%). In kind it is functional.
For assay [19], the system named is HT-29. Nature of the assay: Cell cycle arrest in human HT-29 cells assessed as accumulation of cells at G0/G1 phase at 3 uM after 24 hrs using propidium iodide staining-based flow cytometry (reference value: 74.8%). In kind it is functional.
The subject of assay [20] is HT-29. Nature of the assay: Cell cycle arrest in human HT-29 cells assessed as accumulation of cells at G2/M phase at 10 uM after 24 hrs using propidium iodide staining-based flow cytometry (reference value: 5.8%). Type of assay: functional.
Assay [21] deals with HT-29. The assay is described as follows: Cell cycle arrest in human HT-29 cells assessed as accumulation of cells at G0/G1 phase at 10 uM after 24 hrs using propidium iodide staining-based flow cytometry (reference value: 74.8%). Type of assay: functional.
Assay [22] has as its system HT-29. The assay is described as follows: Induction of apoptosis in human HT-29 cells after 24 hrs using annexin V-FITC and propidium iodide staining by flow cytometry. In kind it is functional, cell-based.
Assay [23] has as its system HT-29. Nature of the assay: Ratio of p-NO-ASA IC50 to compound IC50 for human HT-29 cells assessed as growth inhibition after 48 hrs by trypan blue assay. Type of assay: functional.
Assay [24] deals with HT-29. Nature of the assay: Induction of apoptosis in human HT-29 cells at 300 uM after 24 hrs using annexin V-FITC and propidium iodide staining by flow cytometry. In kind it is functional.
In assay [25] the test system is HT-29. Nature of the assay: Cell cycle arrest in human HT-29 cells assessed as increase in G2/M phase at 100 to 300 uM after 24 hrs using propidium iodide staining-based flow cytometry. Type of assay: functional.
Assay [26] deals with HT-29. Nature of the assay: Cell cycle arrest in human HT-29 cells assessed as increase in S phase at 100 to 300 uM after 24 hrs using propidium iodide staining-based flow cytometry. Type of assay: functional.
Assay [27] has as its system HT-29. The assay is described as follows: Induction of apoptosis in human HT-29 cells at 100 uM after 24 hrs using annexin V-FITC and propidium iodide staining by flow cytometry. In kind it is functional.
The subject of assay [28] is HT-29. Nature of the assay: Cell cycle arrest in human HT-29 cells assessed as reduction in G0/G1 phase at 100 to 300 uM after 24 hrs using propidium iodide staining-based flow cytometry. In kind it is functional.
In assay [29] the test system is MIA PaCa-2. Nature of the assay: Cytotoxicity against human MIAPaCa2 cells assessed as growth inhibition after 48 hrs by trypan blue assay. Type of assay: functional, cell-based. To be noted: MIA PaCa-2, 48 h.
For assay [30], the system named is BXPC-3. The assay is described as follows: Cytotoxicity against human BxPC3 cells assessed as growth inhibition after 48 hrs by trypan blue assay. Type of assay: functional, cell-based. The following applies: BXPC-3, 48 h.
The test system of assay [31] is HT-29. The assay is described as follows: Cytotoxicity against human HT-29 cells assessed as growth inhibition after 48 hrs by trypan blue assay. Type of assay: functional, cell-based. To be noted: HT-29, 48 h.
Assay [32] relates to LNCaP. Nature of the assay: Cytotoxicity against human LNCAP cells assessed as growth inhibition after 48 hrs by trypan blue assay. In kind it is functional, cell-based.
Assay [33] concerns A549. The assay is described as follows: Cytotoxicity against human A549 cells assessed as growth inhibition after 48 hrs by trypan blue assay. Type of assay: functional, cell-based. The following applies: A549, 48 h.
Assay [34] relates to HCT-15. The assay is described as follows: Cytotoxicity against human HCT15 cells assessed as growth inhibition after 48 hrs by trypan blue assay. In kind it is functional, cell-based. To be noted: HCT-15, 48 h.
The subject of assay [35] is SCC-25. The assay is described as follows: Cytotoxicity against human SCC25 cells assessed as growth inhibition after 48 hrs by trypan blue assay. In kind it is functional, cell-based. To be noted: SCC-25, 48 h.

Consider `CCOP(=O)(OCC)OCc1ccc(OC(C)=O)cc1`, for which the Activity was 79% in assay [1]; “Dose-dependent effect” in assay [8]; “Dose-dependent effect” in [9]; 40.8% in [10]; 25% in [12]; 9.6% in assay [14]. For the same compound, the Activity is 38.2% in [18]; 53.2% in [19]; 16.3% in assay [20]; 42.9% in assay [21]; “Dose-dependent effect” in assay [22]. Also, the result in assay [2] was Active. Further, the “Ratio IC50” value in [3], in assay [4], in assay [5], in assay [6], in assay [7] and in assay [15] was 17 each time. Also, the “Ratio IC50” value in [23] worked out at 17. Moreover, the IC50 in assay [11] was 0.65 µM; in [13] it was 0.67 µM; in assay [16], 0.82 µM; in assay [17], 0.67 µM.

Turning to `CCOP(=O)(OCC)OCc1cccc(OC(C)=O)c1`, the outcome in assay [2], in assay [25], in [26] and in assay [28] was Active. For the same compound, the Activity in assay [24] was 79%; in [8] it was “Dose-dependent effect”; in assay [9] it was “Dose-dependent effect”; in [27], 19%. The IC50 in assay [11] was determined as 451 µM; in assay [13], 162 µM; in assay [16], 273 µM; in [17], 214 µM.

With `CCOP(=O)(OCC)OCc1ccccc1OC(C)=O`, the IC50 in [11] came to 110 µM; in assay [13] it was 155 µM; in [16], 82.7 µM; in assay [17], 62.7 µM.

Regarding `CC(=O)Oc1ccccc1C(=O)Oc1ccc(CO[N+](=O)[O-])cc1`, the IC50 in assay [29], in assay [30], in assay [31], in assay [32], in assay [33] and in assay [34] was 10 µM each time. Moreover, in assay [35], the IC50 turned out to be 10 µM.

Consider `CCOP(=O)(OCC)OCc1ccc(OC(C)=O)c(C)c1`, for which the IC50 in [11] turned out to be 0.29 µM; in assay [13], 0.28 µM; in assay [16], 0.31 µM; in [17], 0.32 µM.

Take `CCOP(=O)(OCC)OCc1ccc(OC(C)=O)c(Cl)c1`: the IC50 in assay [11] worked out at 0.68 µM; in assay [13], 0.65 µM; in [16], 1.3 µM; in assay [17], 0.7 µM.
